Results on three compounds are retold here after US20110070174A1, “Benzoyl Peroxide and Sunscreen Agent Combination” (PruGen IP Holdings, Inc., priority 2009, published 2011).

What all share (format): physicochemical
Data set [1] can be described thus: Stability Study 3: BPO/sunscreen mixture, one month at room temperature. To be noted: for 1 MONTH-RT (content) / 1 MONTH-RT (percent of initial, in brackets): Study 3, 1 month room temperature; for % INITIAL (percent of initial, in brackets) / % INITIAL (content): Study 3, initial; for % INITIAL (content): in BPO/sunscreen mixture. An excerpt:
(§1) The stability provided by using the above formula and mixing process has heretofore been unmatched.

Data set [2] in a line: Stability Study 2: BPO/sunscreen mixture, one month at room temperature. Particulars: for 1 MONTH-RT (content) / 1 MONTH-RT (percent of initial, in brackets): Study 2, 1 month room temperature; for % INITIAL (percent of initial, in brackets) / % INITIAL (content): Study 2, initial; for % INITIAL (content): in BPO/sunscreen mixture.
From the text: as §1

A short description of data set [3]: Stability Study 4: BPO/sunscreen mixture, one month at room temperature. Particulars: for 1 MONTH-RT (content) / 1 MONTH-RT (percent of initial, in brackets): Study 4, 1 month room temperature; for % INITIAL (percent of initial, in brackets) / % INITIAL (content): Study 4, initial; for % INITIAL (content): in BPO/sunscreen mixture.
From the text: as §1

Data set [4] in a line: Stability Study 1: BPO/sunscreen mixture, one month at room temperature. To be noted: for 1 MONTH-RT (content) / 1 MONTH-RT (percent of initial, in brackets): Study 1, 1 month room temperature; for % INITIAL (percent of initial, in brackets) / % INITIAL (content): Study 1, initial; for % INITIAL (content): in BPO/sunscreen mixture.
From the text: as §1

Data set [5] in a line: Multiple one-month room temperature studies after mixing the agents together. To be noted: BPO at various percentages.
From the text: as §1

A short description of data set [6]: Stability of sunscreen base and benzoyl peroxide each before mixing. To be noted: each agent separately, one-month repeatable studies.
From the text: as §1

As for `COc1ccc(C(=O)CC(=O)c2ccc(C(C)(C)C)cc2)cc1` [Avobenzone], in data set [1], the “1 MONTH-RT (content)” value came to 2.69%; the “1 MONTH-RT (percent of initial, in brackets)” value turned out to be 91.5%; the “% INITIAL (percent of initial, in brackets)” value was found to be 100%; the “% INITIAL (content)” value is reported as 2.94%. Further, in data set [2], the “1 MONTH-RT (content)” value was 2.78%; the “1 MONTH-RT (percent of initial, in brackets)” value turned out to be 86%; the “% INITIAL (percent of initial, in brackets)” value is given as 100%; the “% INITIAL (content)” value came out at 3.23%.

Regarding `O=C(OOC(=O)c1ccccc1)c1ccccc1` [BPO, Benzoyl peroxide], the “1 MONTH-RT (content)” value came out at 7.76% in data set [3], 7.76% in data set [4], 6.48% in data set [1] and 8.07% in data set [2]. The “1 MONTH-RT (percent of initial, in brackets)” value stood at 108% in data set [3], 108% in data set [4], 107% in data set [1] and 94% in data set [2]. Further, the “% INITIAL (percent of initial, in brackets)” value in data set [3], in data set [4], in data set [1] and in data set [2] was 100% each time. Also, the “% INITIAL (content)” value in data set [3] was 7.16%; in data set [4] it was 7.16%; in data set [1], 6.02%; in data set [2] it was 8.55%. For the same compound, the potency after mixing entry in data set [5] is listed as “remained at full potency”. Besides, in data set [6], the “stability of each agent” value is on record as “stable for at least one year”.

For `CCCCC(CC)COC(=O)C(C#N)=C(c1ccccc1)c1ccccc1` (stereo not shown) [Octocrylene], in data set [3], the “1 MONTH-RT (content)” value amounted to 6.42%; the “1 MONTH-RT (percent of initial, in brackets)” value is reported as 101%; the “% INITIAL (percent of initial, in brackets)” value worked out at 100%; the “% INITIAL (content)” value turned out to be 6.33%. Further, in data set [4], the “1 MONTH-RT (content)” value is on record as 6.42%; the “1 MONTH-RT (percent of initial, in brackets)” value turned out to be 101%; the “% INITIAL (percent of initial, in brackets)” value is on record as 100%; the “% INITIAL (content)” value came out at 6.33%.
